Laboratory results: patent publication US12265087B2, “Olfactory receptor as microglia marker and use thereof” (DAEGU GYEONGBUK INSTITUTE OF SCIENCE AND TECHNOLOGY, priority 2019, dated 2025)

Columns and labels:
Assay type in all cases: cell-based, mouse
primary microglia [1] = assay: Phagocytosis of FITC-dextran by primary microglia (FACS); conditions: 100, 300 and 500 μM
Description: Primary microglia were seeded in 24-well plates (5×10^5 cells/well) and incubated for 24 hours. Cells were preincubated with 2-PF or Sup for 30 minutes, incubated with FITC-dextran (1 mg/ml, 20 mg/ml in PBS; #FD70S; Sigma Aldrich) in serum-free DMEM at 37° C. for […], and washed with PBS at 4° C. The cells were detached with 0.25% trypsin (#15090-046; Thermo Fisher Scientific) in PBS, and the detached cells were analyzed with FACS Accuri™ C6 (BD Biosciences). Mean fluorescence intensity (MFI) was calculated by integrating fluorescence histograms under each condition using the software. A phagocytosis index was defined as MFI, normalized against an untreated group.

primary microglia [2] = assay: ROS / superoxide generation in primary microglia
Description: Superoxide concentrations were calculated by measuring the degree ofcytochrome c reduction using a VersaMax microplate reader (Babior et al., 1973). Microglia were cultured in a 96 well plate at a concentration of 1.0×10^5 cells/well, and the microglia were activated by a 10 μM ATP solution containing 2-PF and cytochrome c, or a solution in which Sup is mixed with cytochalasin B (5 μM; #C66762; Sigma Aldrich). The concentration of ROS was measured through a change in light absorption every minute for 25 minutes at 550 nm.
ROS levels were measured using 2′,7′-dichlorodihydrofluorescein diacetate (DCF-DA, #D6883; Sigma Aldrich) by a previously described method with minor modifications (Bae et al., 2001). More specifically, primary microglia were seeded in 24-well plates (5.0×10^5 cells/well) for 24 hours, and then treated with 10 μM DCF-DA at 37° C. for 30 minutes. One plate was treated with 2-PF, and the other one was not. The cells in each well were measured using a flow cytometer (FACS Accuri™ C6; BD Biosciences). MFI was measured as described above.

microglia = assay: Ex vivo phagocytosis of microglia in brain slices (time-lapse confocal imaging); conditions: brain slices of CX3CR1 GFP/+ mice
Description: In this experiment, to examine the phagocytotic action of microglia, the brain of a 9-week-old male CX3CR1^GFP/+ mouse was sliced to a thickness of 150 μm using a vibratome (Leica VT1200), and stored in a ice-cooled artificial cerebrospinal fluid (aCSF: 120 mM NaCl, 25 mM NaHCO3, 1.25 mM NaH2PO4, 5 mM KCl, 1 mM CaCl2, 1 mM MgSO4, […], pH7.4). Afterwards, the sliced brain was incubated to remove cell debris. Oxygen-treated aCSF was pretreated in a perfusion chamber at 37° C. for 2 hours. Subsequently, before incubation, the sliced brain was incubated with 500 μl of aCSF containing 9.10×10^7 microspheres (360/407 […]; #17458; Polysciences), and covered with a customized nylon grid. Time lapse videos were recorded every minute for 92 minutes using a confocal microscope. The number of phagocytosing microglia was counted from the images.

primary microglia [3] = assay: mRNA-sequencing of primary microglia (DEGs, GOBP); conditions: Sup MOI 100 or 2-PF 100 μM, 2 hours
Description: After a vehicle (control), Sup (MOI 100) or 2-PF (100 μM) treatment for 2 hours, total RNA was isolated from 2×10^6 cells of primary microglia using a RNeasy miniKit (Qiagen, 74104), and analyzed using a Qubit RNA HS assay kit (Thermo Fisher Scientific, Q32852) according to the manufacturer's standard protocol for quantification. The RNA integrity number (RIN) of each sample was measured using the Agilent Technologies 2100 BioAnalyzer, and the RINs of all samples were 8.5 or more, which is suitable for mRNA sequencing. Full-length cDNA was generated using a SMARTer-Seq v4 Ultra Low input RNA Kit (Clontech, 634888) according to the manufacturer's recommended protocol. The first strand synthesis of cDNA was initiated from 10 ng total RNA by adding 1 μl of 3′ SMART CDS primer II A for 3 minutes at 72° C. […] After PCR, the DNA library was purified using AMPure beads and quality was assessed by an Agilent 2100 Bioanalyzer. A DNA library of each sample was quantified using a KAPA library quantification kit (KAPA Biosystems, KK4854) and then pooled. All libraries were sequenced using an Illumina Hiseq2500 instrument to generate dual-indexed 100-bp paired reads, thereby obtaining an average of 58 million reads for each sample. […] The remaining reads were aligned to the mouse reference genome (GRCm38) using TopHat (Trapnell et al., 2009) with default options. […]

CCCCCc1ccco1 [2-PF, 2-pentylfuran]
phagocytosis (primary microglia [1]): significantly increased in a concentration-dependent manner | ROS generation on top of Sup MOI 5 (primary microglia [2]; 500 μM 2-PF with Sup MOI 5): further increased | ROS secretion (primary microglia [2]; 100, 300 and 500 μM): significantly increased in a concentration-dependent manner | activity of phagocytosis of microglia ex vivo (microglia): increased | genes regulated (mRNA-seq) (primary microglia [3]): up-regulate genes involved in microglial activation
